The record followed here is patent US20220409510A1, “Polypeptides And Methods For Improving Skin Conditions” (Interk Peptide Therapeutics Limited, priority 2018, published 2022).

Non-standard residues stand in square brackets, D forms with d. No end group written: not given here.

For series [1], the system named is wound (skin punch, ID 12 mm). Briefly: Murine wound model, percentage closure of the wound. The following applies: topical 10 ug per mouse daily for 10 consecutive days. It is filed as in vivo, ICR mice. The text has this:
FIGS. 1 and 2 illustrate the effect of polypeptides IK34720 (SEQ ID NO: 3—RSKAKNPLYRRRRRRRRR) (FIG. 1) and the dextro-reverso sequence IK236770 (SEQ ID NO: 4—rrrrrrrrrylpnkaksr) (FIG. 2), on wound healing over 10 days in a murine wound model in accordance with the following protocol.
Three groups of 8 male ICR mice with a mean weight of 22 g (±2 g) were used in the present study. The animals were housed in individual cages during the study. Under isoflurane gas anaesthesia, the shoulder and back region of each animal was shaved and a sharp punch (ID 12 mm) was used to induce a wound by removing the skin, including panniculus carnosus and adherent tissues on Day 1.
Following induction of the wound the polypeptides IK34720 and IK236770 were topically administered to the site of the wound at a dosage of 10 μg per animal. […] An additional group which comprised the administration of Phosphate buffered Saline (PBS) at pH 7.4 was used as a negative control.
The wound healing was analysed on Days 5, 7, 9 and 11 by tracing the periphery of the wound onto clear plastic sheets with the wound area calculated by an Image analyzer ProPlus (Media Cybernetics, Version 4.5.0.29. The percentage closure of the wound (%) was calculated. Percentage closure of the wound was determined on 5, 7, 9 and 11. ANOVA and Dunnett's test were applied to test significant significance between the treated groups (peptide and positive control groups) and the negative control group at each time point of measurement. Differences were considered statistically significant at P<0.05, and are indicated by *.

In a further series the test system is MMP1. The experiment in a line: MMP1 expression in human skin explants after UV-irradiation (immunohistochemistry). It is filed as cell-based. The following applies: 3 hrs post irradiation/treatment; Calcitriol 1 nM; IK34720 50, 250 or 500 uM; FIG. 17. As to the method: The effect of the polypeptide IK34720 (SEQ ID NO: 3) on MMP-1 activity in human skin was evaluated using the following protocol.
FIGS. 17 and 18 illustrate the effect of the polypeptide IK34720 (SEQ ID NO: 3) on MMP1 expression, in accordance with the following protocol.
Human skin (2× human explant tissues) removed at elective surgery was cleaned, dissected and cut into pieces of approx. 5mm×5mm. Each piece was placed in a well of a 96 well plate, with individual plates prepared to assess the effects 3 hrs post treatment. Skin was subjected to UV-radiation from solar-simulated UV source for 1.5 h (UVR), or non-irradiation (SHAM), and treated immediately after with a vehicle control, Calcitriol (1 nM) or the polypeptide IK34720 (SEQ ID NO: 3) at concentrations of 50 μM, 250 μM or 500 uM. In FIG. 17, IK50, IK250 and IK500 as μM concentrations refers to 15 μg, 75 μg and 150 μg of IK34720 per 120 μL culture medium/explant, respectively.
Samples harvested at 3 hrs were fixed, sectioned, immunohistochemically stained for MMP1 and quantified for MMP1 expression, by expressing epidermal area stained for MMP1 as a function of total epidermal area examined.

Series [2] concerns CPDs in human skin explants. Briefly: CPD formation in human skin explants after UV-irradiation. It is filed as cell-based. To be noted: 3 hrs post irradiation/treatment; Calcitriol 1 nM; IK34720 50, 250 or 500 uM; FIG. 12. As for the experimental part:
Human skin removed at elective surgery was cleaned, dissected and cut into pieces of approx. 5 mm×5 mm. Each piece was placed in a well of a 96 well plate, with individual plates prepared to assess the effects 3 hrs post treatment. All samples were performed in triplicate for each treatment. Skin was subjected to UV-radiation from solar-simulated UV source for 1.5 h (UVR), or non-irradiation (SHAM). Given that human skin is thicker than mouse skin, human skin explants were exposed to a radiation dose three times higher than that used for mouse skin, i.e., 20 J/cm2 versus 7 J/cm2, respectively, and the output spectrum of the laboratory solar simulator has previously been reported (Rybchyn MS et al, J Invest Dermatol. 2018 May; 138(5):1146-1156) and treated immediately after with a vehicle control, Calcitriol (1 nM) or the polypeptide IK34720 (SEQ ID NO: 3) at concentrations of 50 μM, 250 μM or 500 uM.
Samples harvested at 3 hrs were fixed, section, stained and quantified as described in Example 5.

The test system of a further series is dermal fibroblasts. The experiment in a line: TBARS lipid peroxidation assay in UV irradiated dermal fibroblasts. The series is classed as cell-based. The following applies: highest concentration (5 μM) of peptide; FIG. 19. As to the method:
The ability of the polypeptide RSKAKNPLYRRRRRRRRR to alter UV-induced oxidative damage of cell-derived lipids was examined using the TBARS thiobarbituric acid-reactive substances (TBARS) lipid peroxidation assay.
After irradiation or sham-irradiation of dermal fibroblasts, supernatants (900 μL) were collected. In brief, 90 μL of butylated hydroxytoluene (2% w/w in ethanol) was added and samples kept frozen (−20° C.) until the TBARS assay. Petri dishes were washed twice with 1 mL of HBSS, cells scraped in 600 μL of water and 60 μL of 0.5% aqueous Triton X100 added to this solution, for protein determination carried out by the Lowry method (Lowry OH et al, J. Biol. Chem., 1951, 193:265-275). TBARS were fluorometrically assayed as described (Morlière P et al, Biochim. Biophys. Acta, 1991, 1084:261-268). Briefly, thawing samples were heated in the presence of thiobarbituric acid in acidic conditions, and TBARS extracted with 1-butanol and fluorometrically quantified (λexc=515 nm and λem=550 nm). Tetraethoxypropane, which quantitatively yields the malondialdehyde-thiobarbituric acid adduct in the assay conditions, was used for calibration. TBARS values, expressed in malondialdehyde (MDA) equivalents, were normalized to the cell protein for each Petri dish. Each TBARS determination was performed in triplicate (e.g., with three Petri dishes per data point).

In series [3] the target is T1, polypeptide IK34720 (RSKAKNPLYRRRRRRRRR).
T1 chain: RSKAKNPLYRRRRRRRRR

Regarding `CCNC(=O)[C@H]1O[C@@H](n2cnc3c(N)nc(NCCc4ccc(CCC(=O)O)cc4)nc32)[C@H](O)[C@@H]1O` [CGS-21680, reference compound], the wound closure percentage result in series [1] (Day 5 to Day 11, vs negative control (PBS)) is on record as “increase wound healing compared to the negative control”.

For `C=C1/C(=C\C=C2/CCC[C@]3(C)[C@@H]([C@H](C)CCCC(C)(C)O)CC[C@@H]23)C[C@@H](O)C[C@@H]1O` [Calcitriol, 1,25-dihydroxyvitamin D3, reference compound], the “cells staining for MMP-1” value with MMP1 is on record as “fewer stained cells”. Moreover, in series [2], the “cells having CPDs (stained cells)” value is given as “fewer stained cells”. In addition, the “significant difference in TRS (TBA reactive substances) between Sham and UV irradiation” value in the series with dermal fibroblasts was “not seen”.

“rrrrrrrrrylpnkaksr ([dR][dR][dR][dR][dR][dR][dR][dR][dR][dY][dL][dP][dN][dK][dA][dK][dS][dR]; also: retro-inverso) [IK236770]”: the “wound healing (wound closure % percentage)” value in series [1] (day 5, vs negative control) is given as “statistically significant increase in wound healing”.

B1: Human rheumatoid synovial fibroblast MMP-1 proenzyme, activated with APMA (protein)
chain: FVLTEGNPRWEQTHLTYRIENYTPDLPRADVDHAIEKAFQLWSNVTPLTFTKVSEGQADIMISFVRGDHRDNSPFDGPGGNLAHAFQPGPGIGGDAHFDEDERWTNNFREYNLHRVAAHELGHSLGLSHSTDIGALMYPSYTFSGDVQLAQDDIDGIQAIYGRSQNPVQPIGPQTPKACDSKLTFDAITTIRGEVMFFKDRFYMRTNPFYPEVELNFISVFWPQLPNGLEAAYEFADRDEVRFFKGNKYWAVQGQNVLHGYPKDIYSSFGFPRTVKHIDAALSEENTGKTYFFVANKYWRYDEYKRSMDPGYPKMIAHDFPGIGHKVDAVFMKDGFFYFFHGTRQYKFDPKTKRILTLQKANSWFNCRKN
As to B1, the “MMP-1 activity in vitro: amount of Mca-Pro-Leu-Gly formed from the fluorogenic substrate Mca-Pro-Leu-Gly-Leu-Dap-Ala-Arg, read spectrofluorimetrically at 340 nm/400 nm” value in series [3] was “inhibits MMP-1 activation in a dose dependent manner”.
